Experimental data from article PMC10176470, “Engaging a Non-catalytic Cysteine Residue Drives Potent and Selective Inhibition of Caspase-6” (Journal of the American Chemical Society, 2023).

Key:
Type in all cases: cell-based
[1] = target: proteins of HEK293T cells transiently overexpressing caspase-6 (Homo sapiens, UniProt Q92688); details: protein ANP32B (Q92688)
[2] = target: proteins of HEK293T cells transiently overexpressing caspase-6 (Homo sapiens, UniProt P78371); details: exp_ref Probe; protein CCT2 (P78371); analysis C6
Chain of proteins of HEK293T cells transiently overexpressing caspase-6 (Homo sapiens, UniProt P78371) (P78371 whole entry): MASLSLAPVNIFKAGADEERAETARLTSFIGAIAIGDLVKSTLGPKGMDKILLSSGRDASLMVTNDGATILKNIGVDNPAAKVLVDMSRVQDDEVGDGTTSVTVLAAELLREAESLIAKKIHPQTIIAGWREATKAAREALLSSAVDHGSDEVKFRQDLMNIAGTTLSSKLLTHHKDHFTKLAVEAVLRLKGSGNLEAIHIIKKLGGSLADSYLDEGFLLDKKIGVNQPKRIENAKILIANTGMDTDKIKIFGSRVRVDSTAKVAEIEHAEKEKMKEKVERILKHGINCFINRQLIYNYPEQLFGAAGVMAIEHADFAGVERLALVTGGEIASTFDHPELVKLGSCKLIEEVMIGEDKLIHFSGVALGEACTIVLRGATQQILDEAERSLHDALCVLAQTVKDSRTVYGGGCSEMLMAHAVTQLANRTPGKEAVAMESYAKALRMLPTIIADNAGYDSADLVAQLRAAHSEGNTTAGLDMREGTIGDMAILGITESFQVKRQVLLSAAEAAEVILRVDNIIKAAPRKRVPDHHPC

[3] = target: proteins of HEK293T cells transiently overexpressing caspase-6 (Homo sapiens, UniProt P22087); details: exp_ref Probe; protein FBL (P22087); analysis C6
Chain of proteins of HEK293T cells transiently overexpressing caspase-6 (Homo sapiens, UniProt P22087) (P22087 whole entry): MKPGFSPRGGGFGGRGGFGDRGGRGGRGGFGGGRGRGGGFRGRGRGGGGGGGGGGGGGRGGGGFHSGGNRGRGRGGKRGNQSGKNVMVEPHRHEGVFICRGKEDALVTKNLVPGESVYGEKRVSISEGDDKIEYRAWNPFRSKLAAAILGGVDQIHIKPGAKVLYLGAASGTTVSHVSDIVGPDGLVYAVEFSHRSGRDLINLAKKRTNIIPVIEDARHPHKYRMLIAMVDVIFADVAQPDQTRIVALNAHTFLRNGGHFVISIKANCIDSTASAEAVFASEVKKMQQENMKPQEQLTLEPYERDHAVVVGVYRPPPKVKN

[4] = target: proteins of HEK293T cells transiently overexpressing caspase-6 (Homo sapiens, UniProt Q02543); details: exp_ref Probe; protein RPL18A (Q02543); analysis C6
[5] = target: proteins of HEK293T cells transiently overexpressing caspase-6 (Homo sapiens, UniProt P62633); details: exp_ref Probe; protein CNBP (P62633); analysis C6
Chain of proteins of HEK293T cells transiently overexpressing caspase-6 (Homo sapiens, UniProt P62633) (P62633 whole entry): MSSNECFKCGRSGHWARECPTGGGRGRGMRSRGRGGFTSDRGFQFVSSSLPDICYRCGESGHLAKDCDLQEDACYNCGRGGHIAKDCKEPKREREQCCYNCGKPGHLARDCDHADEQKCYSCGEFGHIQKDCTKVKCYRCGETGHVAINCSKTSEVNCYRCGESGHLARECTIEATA

[6] = target: proteins of HEK293T cells transiently overexpressing caspase-6 (Homo sapiens, UniProt Q9BVP2); details: exp_ref Probe; protein GNL3 (Q9BVP2); analysis C6
Chain of proteins of HEK293T cells transiently overexpressing caspase-6 (Homo sapiens, UniProt Q9BVP2) (Q9BVP2 whole entry): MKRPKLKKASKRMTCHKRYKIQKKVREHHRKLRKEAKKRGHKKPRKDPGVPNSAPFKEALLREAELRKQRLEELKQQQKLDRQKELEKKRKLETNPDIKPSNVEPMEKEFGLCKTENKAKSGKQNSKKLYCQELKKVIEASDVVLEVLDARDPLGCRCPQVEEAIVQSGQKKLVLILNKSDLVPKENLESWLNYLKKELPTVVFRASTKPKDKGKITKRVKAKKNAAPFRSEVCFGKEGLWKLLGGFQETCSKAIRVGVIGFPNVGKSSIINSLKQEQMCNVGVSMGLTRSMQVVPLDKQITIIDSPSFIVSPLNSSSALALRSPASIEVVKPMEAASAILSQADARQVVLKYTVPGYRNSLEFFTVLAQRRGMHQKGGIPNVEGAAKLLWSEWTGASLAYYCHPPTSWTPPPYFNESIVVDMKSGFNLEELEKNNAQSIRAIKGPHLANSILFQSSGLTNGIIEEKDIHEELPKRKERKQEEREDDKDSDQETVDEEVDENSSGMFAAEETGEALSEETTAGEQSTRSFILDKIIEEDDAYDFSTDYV

[7] = target: T1, proteins of HEK293T cells transiently overexpressing caspase-6 (Homo sapiens, UniProt P00390)
T1 sequence (P00390 44-522): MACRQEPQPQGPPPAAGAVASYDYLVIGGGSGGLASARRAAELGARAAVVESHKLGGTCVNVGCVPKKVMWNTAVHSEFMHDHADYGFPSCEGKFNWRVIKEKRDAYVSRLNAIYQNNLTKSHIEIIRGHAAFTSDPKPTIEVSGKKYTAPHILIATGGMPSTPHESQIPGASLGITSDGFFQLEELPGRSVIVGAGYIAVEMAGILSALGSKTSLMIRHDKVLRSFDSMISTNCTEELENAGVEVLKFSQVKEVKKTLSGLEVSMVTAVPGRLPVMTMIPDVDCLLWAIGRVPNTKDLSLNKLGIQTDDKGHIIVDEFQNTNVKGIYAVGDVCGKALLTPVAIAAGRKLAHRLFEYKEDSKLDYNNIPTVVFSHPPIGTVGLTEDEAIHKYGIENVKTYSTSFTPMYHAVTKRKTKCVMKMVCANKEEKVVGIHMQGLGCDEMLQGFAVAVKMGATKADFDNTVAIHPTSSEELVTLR

[8] = target: proteins of HEK293T cells transiently overexpressing caspase-6 (Homo sapiens, UniProt Q06830); details: exp_ref Probe; protein PRDX1 (Q06830); analysis C6
Chain of proteins of HEK293T cells transiently overexpressing caspase-6 (Homo sapiens, UniProt Q06830) (Q06830 whole entry): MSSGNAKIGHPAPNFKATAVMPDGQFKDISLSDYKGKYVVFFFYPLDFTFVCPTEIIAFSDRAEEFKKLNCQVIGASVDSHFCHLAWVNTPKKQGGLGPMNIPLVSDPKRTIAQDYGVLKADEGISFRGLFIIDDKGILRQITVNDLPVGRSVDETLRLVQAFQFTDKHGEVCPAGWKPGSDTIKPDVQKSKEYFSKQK

[9] = target: proteins of HEK293T cells transiently overexpressing caspase-6 (Homo sapiens, UniProt Q15185); details: exp_ref Probe; protein PTGES3 (Q15185); analysis C6
Chain of proteins of HEK293T cells transiently overexpressing caspase-6 (Homo sapiens, UniProt Q15185) (Q15185 whole entry): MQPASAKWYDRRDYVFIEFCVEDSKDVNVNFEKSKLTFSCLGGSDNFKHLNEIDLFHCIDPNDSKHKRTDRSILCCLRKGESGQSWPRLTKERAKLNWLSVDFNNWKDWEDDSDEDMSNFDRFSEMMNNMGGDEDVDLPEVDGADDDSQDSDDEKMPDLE

[10] = target: proteins of HEK293T cells transiently overexpressing caspase-6 (Homo sapiens, UniProt P09651); details: protein HNRNPA1 (P09651)
Chain of proteins of HEK293T cells transiently overexpressing caspase-6 (Homo sapiens, UniProt P09651) (P09651 whole entry): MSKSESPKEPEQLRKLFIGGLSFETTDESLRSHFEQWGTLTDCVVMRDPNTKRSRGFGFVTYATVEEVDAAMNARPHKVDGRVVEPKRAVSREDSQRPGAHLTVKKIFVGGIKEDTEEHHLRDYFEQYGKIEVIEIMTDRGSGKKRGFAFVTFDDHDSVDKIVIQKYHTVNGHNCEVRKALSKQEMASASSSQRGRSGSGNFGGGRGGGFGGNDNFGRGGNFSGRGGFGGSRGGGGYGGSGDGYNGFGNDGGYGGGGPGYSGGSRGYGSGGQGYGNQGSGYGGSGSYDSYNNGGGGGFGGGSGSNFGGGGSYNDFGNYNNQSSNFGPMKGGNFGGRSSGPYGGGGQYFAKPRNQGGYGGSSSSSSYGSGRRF

[11] = target: proteins of HEK293T cells transiently overexpressing caspase-6 (Homo sapiens, UniProt P11388); details: protein TOP2A (P11388)
Chain of proteins of HEK293T cells transiently overexpressing caspase-6 (Homo sapiens, UniProt P11388) (P11388 whole entry): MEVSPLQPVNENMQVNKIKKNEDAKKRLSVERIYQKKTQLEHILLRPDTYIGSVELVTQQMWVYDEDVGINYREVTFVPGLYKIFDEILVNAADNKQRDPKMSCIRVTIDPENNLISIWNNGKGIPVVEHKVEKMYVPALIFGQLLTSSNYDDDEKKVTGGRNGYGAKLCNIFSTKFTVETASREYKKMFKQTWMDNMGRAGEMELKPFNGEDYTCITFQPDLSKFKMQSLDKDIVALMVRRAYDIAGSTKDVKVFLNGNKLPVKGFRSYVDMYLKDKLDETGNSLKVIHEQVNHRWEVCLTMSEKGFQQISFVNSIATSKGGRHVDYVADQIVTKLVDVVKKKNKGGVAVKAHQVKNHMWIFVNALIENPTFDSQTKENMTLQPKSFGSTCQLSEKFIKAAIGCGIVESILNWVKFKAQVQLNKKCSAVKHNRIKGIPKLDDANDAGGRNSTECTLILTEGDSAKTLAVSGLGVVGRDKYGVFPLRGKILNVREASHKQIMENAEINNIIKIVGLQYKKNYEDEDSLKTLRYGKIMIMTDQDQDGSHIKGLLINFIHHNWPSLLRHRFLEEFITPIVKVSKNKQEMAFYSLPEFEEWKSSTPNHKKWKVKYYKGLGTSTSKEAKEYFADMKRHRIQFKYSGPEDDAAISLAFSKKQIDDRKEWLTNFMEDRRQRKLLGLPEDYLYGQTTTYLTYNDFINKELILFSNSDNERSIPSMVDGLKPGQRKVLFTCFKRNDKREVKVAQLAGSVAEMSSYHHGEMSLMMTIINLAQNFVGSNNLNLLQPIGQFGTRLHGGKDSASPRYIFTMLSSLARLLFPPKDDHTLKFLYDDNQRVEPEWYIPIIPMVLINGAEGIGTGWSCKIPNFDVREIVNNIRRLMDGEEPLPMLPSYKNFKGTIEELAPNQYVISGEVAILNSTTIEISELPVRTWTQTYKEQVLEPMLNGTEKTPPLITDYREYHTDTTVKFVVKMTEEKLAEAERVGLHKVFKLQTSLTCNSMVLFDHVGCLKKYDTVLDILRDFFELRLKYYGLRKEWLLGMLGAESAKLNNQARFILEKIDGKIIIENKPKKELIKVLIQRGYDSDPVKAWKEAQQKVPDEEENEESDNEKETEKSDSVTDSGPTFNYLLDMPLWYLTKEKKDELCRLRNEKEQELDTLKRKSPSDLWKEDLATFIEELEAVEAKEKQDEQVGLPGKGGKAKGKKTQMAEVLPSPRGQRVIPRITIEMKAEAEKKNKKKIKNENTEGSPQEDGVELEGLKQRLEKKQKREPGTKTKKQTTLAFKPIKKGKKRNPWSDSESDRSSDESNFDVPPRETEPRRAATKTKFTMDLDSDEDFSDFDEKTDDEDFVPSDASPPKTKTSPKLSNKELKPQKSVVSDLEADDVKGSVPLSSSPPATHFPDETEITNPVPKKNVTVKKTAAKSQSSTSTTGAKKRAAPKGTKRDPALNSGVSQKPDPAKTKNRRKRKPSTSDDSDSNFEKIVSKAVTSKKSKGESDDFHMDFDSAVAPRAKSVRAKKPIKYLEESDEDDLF

[12] = target: proteins of HEK293T cells transiently overexpressing caspase-6 (Homo sapiens, UniProt P13647); details: Probe; protein KRT5 P13647
Chain of proteins of HEK293T cells transiently overexpressing caspase-6 (Homo sapiens, UniProt P13647) (P13647 whole entry): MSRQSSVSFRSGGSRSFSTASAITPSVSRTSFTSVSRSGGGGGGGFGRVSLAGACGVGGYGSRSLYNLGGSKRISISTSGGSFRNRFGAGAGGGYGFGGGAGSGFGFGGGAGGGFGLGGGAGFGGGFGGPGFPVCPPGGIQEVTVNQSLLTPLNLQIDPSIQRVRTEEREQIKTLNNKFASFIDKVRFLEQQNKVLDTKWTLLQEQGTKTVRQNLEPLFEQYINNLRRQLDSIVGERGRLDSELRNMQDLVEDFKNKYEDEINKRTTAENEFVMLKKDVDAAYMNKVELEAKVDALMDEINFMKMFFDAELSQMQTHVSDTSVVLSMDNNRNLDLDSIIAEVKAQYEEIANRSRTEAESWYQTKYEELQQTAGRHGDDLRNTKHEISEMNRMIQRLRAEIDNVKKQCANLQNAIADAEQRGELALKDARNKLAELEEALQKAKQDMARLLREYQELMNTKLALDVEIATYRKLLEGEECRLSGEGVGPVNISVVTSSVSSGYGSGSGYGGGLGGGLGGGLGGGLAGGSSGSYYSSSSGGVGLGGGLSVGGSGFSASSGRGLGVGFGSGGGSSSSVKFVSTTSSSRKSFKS

[13] = target: proteins of HEK293T cells transiently overexpressing caspase-6 (Homo sapiens, UniProt P07900); details: exp_ref Probe; protein HSP90AA1 (P07900); analysis C6
[14] = target: proteins of HEK293T cells transiently overexpressing caspase-6 (Homo sapiens, UniProt P04181); details: exp_ref Probe; protein OAT (P04181); analysis C6
[15] = target: T2, proteins of HEK293T cells transiently overexpressing caspase-6 (Homo sapiens, UniProt P50990); details: protein CCT8 (P50990)
T2 sequence (P50990 1-548): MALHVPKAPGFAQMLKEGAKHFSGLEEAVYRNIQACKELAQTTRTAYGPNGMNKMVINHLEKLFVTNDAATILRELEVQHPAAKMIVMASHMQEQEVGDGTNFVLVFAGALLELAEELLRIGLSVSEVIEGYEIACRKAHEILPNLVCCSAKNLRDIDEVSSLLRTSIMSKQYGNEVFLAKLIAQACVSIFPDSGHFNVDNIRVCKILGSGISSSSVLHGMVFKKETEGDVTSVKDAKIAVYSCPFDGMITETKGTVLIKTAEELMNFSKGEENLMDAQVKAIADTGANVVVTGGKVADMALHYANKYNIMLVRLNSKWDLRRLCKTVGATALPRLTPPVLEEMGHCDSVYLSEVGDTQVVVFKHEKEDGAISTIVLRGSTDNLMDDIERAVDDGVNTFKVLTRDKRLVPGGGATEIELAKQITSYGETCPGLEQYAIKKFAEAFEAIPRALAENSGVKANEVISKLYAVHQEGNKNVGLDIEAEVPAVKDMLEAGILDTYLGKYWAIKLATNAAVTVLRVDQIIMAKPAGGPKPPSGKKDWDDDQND

Chain of proteins of HEK293T cells transiently overexpressing caspase-6 (Homo sapiens, UniProt Q92688) (Q92688 whole entry): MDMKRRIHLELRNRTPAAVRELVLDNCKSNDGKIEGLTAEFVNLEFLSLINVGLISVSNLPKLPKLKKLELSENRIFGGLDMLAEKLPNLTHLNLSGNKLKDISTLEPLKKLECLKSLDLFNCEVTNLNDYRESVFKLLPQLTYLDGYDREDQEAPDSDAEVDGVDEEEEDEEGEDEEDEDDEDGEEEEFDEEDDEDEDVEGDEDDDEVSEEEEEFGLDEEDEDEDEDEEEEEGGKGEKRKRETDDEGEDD

C#CCOc1ccc([C@@H]2C[C@@H](C(=O)Nc3ccc(OC(F)(F)F)cc3)CN(S(=O)(=O)C=C)C2)cc1 (relative stereo) [13-t]
enrich.exp.med.lin [1]: 4.217
enrich.exp.med.log2 [1]: 2.0761
enrich.exp.med ([1]; exp_ref Probe, analysis C6): 2.0761
enrich.exp.med [2]: 0.6812
enrich.exp.med [3]: 0.8492
enrich.exp.med [4]: -0.1551
enrich.exp.med [5]: -0.4177
enrich.exp.med [6]: 0.541
enrich.exp.med ([7]; Probe, protein GSR P00390): -1.323
enrich.exp.med.lin ([7]; protein GSR (P00390)): 0.3998
enrich.exp.med.log2 ([7]; protein GSR (P00390)): -1.323
enrich.exp.med [8]: -0.1545
enrich.exp.med [9]: 1.128
enrich.exp.med ([10]; exp_ref Probe, analysis C6): 0.3216
enrich.exp.med.lin [10]: 1.2497
enrich.exp.med.log2 [10]: 0.3216
enrich.exp.med.lin [11]: 3.929
enrich.exp.med.log2 [11]: 1.974
enrich.exp.med ([11]; exp_ref Probe, analysis C6): 1.974
enrich.exp.med [12]: -6.8
enrich.exp.med [13]: 0.7182
enrich.exp.med [14]: 1.012
enrich.exp.med ([15]; exp_ref Probe, analysis C6): 0.932
enrich.exp.med.lin [15]: 1.908
enrich.exp.med.log2 [15]: 0.932
